The values below come from ChEMBL document CHEMBL1926664, “Synthesis and antiproliferative evaluation of 6-aryl-11-iminoindeno[1,2-c]quinoline derivatives” (2011).

The subject of one assay is MDA-MB-231. As to the kind of experiment: Growth inhibition of human MDA-MB-231 cells after 72 hrs by XTT assay. Particulars: MDA-MB-231, 72 h. Type of assay: functional. A general note: Tetrazolium dyes change colour on reduction, which living cells bring about.
Another assay concerns A549. As to the kind of experiment: Growth inhibition of human A549 cells after 72 hrs by XTT assay. Type of assay: functional. The conditions noted are these: A549, 72 h.
A short description of assay [1]: Growth inhibition of human Hep3B cells after 72 hrs by XTT assay. Type of assay: functional, Hep 3B2.
Assay [2] in a line: Growth inhibition of human H1299 cells after 72 hrs by XTT assay. Particulars: NCI-H1299, 72 h. Type of assay: functional.
A further assay has as its system HepG2. As to the kind of experiment: Growth inhibition of human HepG2 cells after 72 hrs by XTT assay. Particulars: HepG2, 72 h. Type of assay: functional.
Another assay deals with MCF7. As to the kind of experiment: Growth inhibition of human MCF7 cells after 72 hrs by XTT assay. Type of assay: functional. Particulars: MCF7, 72 h.

As usually defined, the GI50 is the concentration at which growth is held to half of that of the control. A lower GI50 goes with greater sensitivity of the cells. For the compound `COc1ccc(-c2nc3ccccc3c3c2-c2ccc(OC)cc2/C3=N\O)cc1`, the GI50 (in the assay on MDA-MB-231; in the assay on A549; in assay [1]; in assay [2]; in the assay with HepG2; with MCF7) was more than 10 µM in each case.
For the compound `COc1ccc(-c2nc3ccccc3c3c2-c2ccc(OC)cc2/C3=N\OCCCN(C)C)cc1`, the concentration for 50% growth inhibition (GI50) turned out to be 7.01 µM with MDA-MB-231; 6.69 µM in the assay on A549; 3.14 µM in assay [1]; 6.61 µM in assay [2]; 6.54 µM in the assay on HepG2; 6.57 µM with MCF7.
`CN(C)CCCO/N=C1\c2cc(O)ccc2-c2c(-c3ccc(OCCCN(C)C)cc3)nc3ccccc3c21`: the concentration for 50% growth inhibition (GI50) with MDA-MB-231 is 0.63 µM; in the assay on A549, 2.03 µM; in assay [1], 0.61 µM; in assay [2], 0.69 µM; in the assay with HepG2, 3.77 µM; in the assay on MCF7, 6.65 µM.
As for `COc1ccc(-c2nc3ccc(F)cc3c3c2-c2ccc(OC)cc2/C3=N\O)cc1`, the 50% growth inhibitory concentration (GI50) (with MDA-MB-231; in the assay on A549; in assay [1]; in assay [2]; in the assay with HepG2; with MCF7) was more than 10 µM throughout.
`CC[C@@]1(O)C(=O)OCc2c1cc1n(c2=O)Cc2cc3c(CN(C)C)c(O)ccc3nc2-1` [TOPOTECAN]: the 50% growth inhibitory concentration (GI50) with MDA-MB-231 is 0.078 µM; in assay [1], 0.22 µM; in assay [2], more than 10 µM; with MCF7, more than 10 µM.
With `Oc1ccc(-c2nc3ccccc3c3c2-c2ccc(OCCN4CCCC4)cc2/C3=N\OCCN2CCCC2)cc1`, the GI50 with MDA-MB-231 was found to be 0.68 µM; with A549, 0.79 µM; in assay [1] it was 0.78 µM; in assay [2], 6.51 µM; in the assay on HepG2, 4.09 µM; in the assay on MCF7 it was 6.42 µM.
In the case of `COc1ccc(-c2nc3ccccc3c3c2-c2ccc(OC)cc2/C3=N\OCCN2CCCCC2)cc1`, the concentration for 50% growth inhibition (GI50) in the assay with MDA-MB-231 was more than 10 µM; with A549 it was more than 10 µM; in assay [1], 8.29 µM; in assay [2], more than 10 µM; in the assay with HepG2, more than 10 µM; in the assay with MCF7, more than 10 µM.
For `CN(C)CCCO/N=C1\c2cc(OCCCN(C)C)ccc2-c2c(-c3ccc(O)cc3)nc3ccccc3c21`, the GI50 was 3.07 µM in the assay on MDA-MB-231; 2.1 µM in the assay on A549; 5.41 µM in assay [1]; 5.3 µM in assay [2]; 4.96 µM in the assay on HepG2; more than 10 µM in the assay on MCF7.
Turning to `COc1ccc(-c2nc3ccc(OC)cc3c3c2-c2ccc(OC)cc2/C3=N\OCCN2CCCC2)cc1`, the GI50 in the assay with MDA-MB-231 was determined as 5.15 µM; in the assay with A549, 6.42 µM; in assay [1] it was 6.17 µM; in assay [2], 6.54 µM; with HepG2, 6.03 µM; with MCF7, 6.25 µM.
For the compound `COc1ccc(-c2nc3ccc(F)cc3c3c2-c2ccc(OC)cc2/C3=N\OCCN2CCCC2)cc1`, the GI50 in the assay with MDA-MB-231 is 5.99 µM; in the assay with A549 it was 9.24 µM; in assay [1], 3.11 µM; in assay [2], 3.15 µM; in the assay with HepG2, 9.46 µM; in the assay with MCF7, 6.36 µM.
`O/N=C1\c2cc(O)ccc2-c2c(-c3ccc(O)cc3)nc3ccc(F)cc3c21`: the GI50 in the assay on MDA-MB-231 was 8.41 µM; in the assay with A549 it was more than 10 µM; in assay [1], 7.6 µM; in assay [2] it was more than 10 µM; in the assay on HepG2 it was more than 10 µM; with MCF7 it was 8.77 µM.
In the case of `COc1ccc(-c2nc3ccc(OC)cc3c3c2-c2ccc(OC)cc2/C3=N\OCCCN(C)C)cc1`, the GI50 in the assay with MDA-MB-231 was determined as 6.13 µM; in the assay with A549, 6.62 µM; in assay [1] it was 6.49 µM; in assay [2], 5.7 µM; in the assay on HepG2, 5.95 µM; in the assay with MCF7, 6.3 µM.
Consider `O/N=C1\c2cc(O)ccc2-c2c(-c3ccc(O)cc3)nc3ccccc3c21`, for which the GI50 is 8.47 µM with MDA-MB-231; more than 10 µM in the assay with A549; more than 10 µM in assay [1]; more than 10 µM in assay [2]; more than 10 µM in the assay with HepG2; more than 10 µM in the assay with MCF7.
As to `Oc1ccc(-c2nc3ccc(F)cc3c3c2-c2ccc(O)cc2/C3=N\OCCN2CCCC2)cc1`, the GI50 in the assay on MDA-MB-231 is 0.68 µM; with A549, 0.84 µM; in assay [1], 0.64 µM; in assay [2] it was 6.48 µM; in the assay with HepG2 it was 5.04 µM; in the assay on MCF7 it was 6.26 µM.
Turning to `CN(C)CCCO/N=C1\c2cc(OCCCN(C)C)ccc2-c2c(-c3ccc(O)cc3)nc3ccc(F)cc3c21`, the 50% growth inhibitory concentration (GI50) worked out at 0.67 µM in the assay on MDA-MB-231; 0.42 µM in the assay with A549; 0.56 µM in assay [1]; 0.84 µM in assay [2]; 0.66 µM with HepG2; 6.25 µM in the assay on MCF7.
Turning to `Oc1ccc2c(c1)/C(=N\OCCN1CCCC1)c1c-2c(-c2ccc(OCCN3CCCC3)cc2)nc2ccc(F)cc12`, the GI50 worked out at 0.48 µM in the assay on MDA-MB-231; 0.31 µM with A549; 0.47 µM in assay [1]; 0.7 µM in assay [2]; 1.08 µM with HepG2; 6.04 µM in the assay on MCF7.
Take `COc1ccc(-c2nc3ccc(F)cc3c3c2-c2ccc(OC)cc2/C3=N\OCCN2CCCCC2)cc1`: the concentration for 50% growth inhibition (GI50) (in the assay on MDA-MB-231; in the assay with A549; in assay [1]; in assay [2]; in the assay on HepG2; with MCF7) was more than 10 µM in each case.
For `COc1ccc(-c2nc3ccccc3c3c2-c2ccc(OC)cc2/C3=N\OCCN2CCCC2)cc1`, the GI50 was found to be 5.33 µM in the assay on MDA-MB-231; 5.27 µM in the assay with A549; 4.68 µM in assay [1]; 6.31 µM in assay [2]; 5.48 µM in the assay on HepG2; 6.71 µM with MCF7.
As to `CCc1c2c(nc3ccc(OC(=O)N4CCC(N5CCCCC5)CC4)cc13)-c1cc3c(c(=O)n1C2)COC(=O)[C@]3(O)CC` [IRINOTECAN], the GI50 was 9.17 µM in the assay on MDA-MB-231, more than 10 µM in the assay on A549, more than 10 µM in assay [2] and more than 10 µM in the assay on MCF7.
`Oc1ccc2c(c1)/C(=N\OCCN1CCCC1)c1c-2c(-c2ccc(OCCN3CCCC3)cc2)nc2ccccc12`: the GI50 with MDA-MB-231 was found to be 0.51 µM; with A549, 0.54 µM; in assay [1], 0.92 µM; in assay [2], 0.57 µM; with HepG2, 4.11 µM; in the assay with MCF7 it was 5.92 µM.
On to `CN(C)CCCO/N=C1\c2cc(O)ccc2-c2c(-c3ccc(O)cc3)nc3ccc(F)cc3c21`, for which the GI50 in the assay with MDA-MB-231 came to 4.74 µM; in the assay on A549 it was 6.46 µM; in assay [1], 0.69 µM; in assay [2] it was 6.3 µM; with HepG2, 6.24 µM; in the assay on MCF7 it was 6.28 µM.
Take `Oc1ccc(-c2nc3ccc(F)cc3c3c2-c2ccc(OCCN4CCCC4)cc2/C3=N\OCCN2CCCC2)cc1`: the GI50 with MDA-MB-231 came out at 0.33 µM; in the assay on A549, 0.53 µM; in assay [1] it was 0.23 µM; in assay [2] it was 7.09 µM; in the assay on HepG2, 5.71 µM; in the assay on MCF7, 6.2 µM.
In the case of `COc1ccc(-c2nc3ccc(F)cc3c3c2-c2ccc(OC)cc2/C3=N\OCCCN(C)C)cc1`, the GI50 in the assay on MDA-MB-231 was 0.7 µM; with A549 it was 0.91 µM; in assay [1], 0.66 µM; in assay [2], 0.61 µM; with HepG2 it was 5.75 µM; in the assay on MCF7, 6.18 µM.
In the case of `COc1ccc(-c2nc3ccc(OC)cc3c3c2-c2ccc(OC)cc2/C3=N\O)cc1`, the GI50 (in the assay with MDA-MB-231; in the assay with A549; in assay [1]; in assay [2]; in the assay on HepG2; in the assay on MCF7) was more than 10 µM each time.
Consider `Oc1ccc(-c2nc3ccccc3c3c2-c2ccc(O)cc2/C3=N\OCCN2CCCC2)cc1`, for which the concentration for 50% growth inhibition (GI50) with MDA-MB-231 is 0.58 µM; in the assay with A549, 0.88 µM; in assay [1] it was 0.52 µM; in assay [2] it was 6.06 µM; with HepG2 it was 5.74 µM; with MCF7, 7.83 µM.
Turning to `CN(C)CCCO/N=C1\c2cc(O)ccc2-c2c(-c3ccc(O)cc3)nc3ccccc3c21`, the GI50 worked out at 0.93 µM with MDA-MB-231; 0.5 µM with A549; 0.67 µM in assay [1]; 6.94 µM in assay [2]; 1.55 µM in the assay with HepG2; 6.06 µM with MCF7.
